US7476691B2, “Sulfamate benzothiophene derivatives as steroid sulfatase inhibitors” (Laboratoire Theramex, priority 2003, dated 2009)

Legend:
estrone sulfatase = target: T1, estrone sulfatase (Rattus norvegicus, UniProt P15589); experiment: Estrone sulfatase activity in the uterus of treated rats; format: in vivo
T1 construct: uteri were thawed, weighed and homogenized; from tissue; host or cells: uterus of animals dosed orally (ex vivo homogenate supernatant)
T1 sequence (P15589 20-577): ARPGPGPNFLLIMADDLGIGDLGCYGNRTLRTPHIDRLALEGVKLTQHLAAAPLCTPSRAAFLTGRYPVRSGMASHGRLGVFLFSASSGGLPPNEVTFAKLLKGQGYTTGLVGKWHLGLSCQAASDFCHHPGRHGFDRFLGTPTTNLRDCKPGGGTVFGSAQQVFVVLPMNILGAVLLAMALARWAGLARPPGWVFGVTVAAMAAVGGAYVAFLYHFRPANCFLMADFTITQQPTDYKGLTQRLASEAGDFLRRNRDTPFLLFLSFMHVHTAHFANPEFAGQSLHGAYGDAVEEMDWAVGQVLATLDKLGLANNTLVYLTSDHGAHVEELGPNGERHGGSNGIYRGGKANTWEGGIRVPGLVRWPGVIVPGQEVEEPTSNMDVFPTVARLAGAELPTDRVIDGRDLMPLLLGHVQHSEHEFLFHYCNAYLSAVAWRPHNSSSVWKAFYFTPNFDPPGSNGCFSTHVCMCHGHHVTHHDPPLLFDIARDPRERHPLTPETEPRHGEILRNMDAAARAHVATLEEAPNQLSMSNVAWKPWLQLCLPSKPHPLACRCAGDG
Experimental: In this study, a last administration was performed 24 hours before the necropsy for E1S and E2 serum levels assays. The uteri were removed, freed of adjacent tissue, wet weighed and immediately deep frozen until the determination of sulfatase activity.
Estrone sulfatase activity was measured according to the method described by Purohit et al., with slight modifications. Briefly, uteri were thawed, weighed and homogenized. Aliquots of the supernatant were treated with dextran-coated charcoal and assayed for sulfatase. E1S activity was assessed after 30 min of incubation with 5 nM of ^3H-E1S and 20 μM of unlabelled E1S as substrate. Radioactivity was measured by LSC.
Estrone sulfatase activity was expressed as pmol/h/mg protein and reported as percentage of inhibition versus E1S.

melting point: 135 °C
Estrone sulfatase activity in the uterus, percentage of inhibition versus E1S (estrone sulfatase; 0.03 mg/kg/day p.o.): 19%
Estrone sulfatase activity in the uterus, percentage of inhibition versus E1S (estrone sulfatase; 0.1 mg/kg/day p.o.): 64%
Estrone sulfatase activity in the uterus, percentage of inhibition versus E1S (estrone sulfatase; 0.3 mg/kg/day p.o.): 96%
Estrone sulfatase activity in the uterus, percentage of inhibition versus E1S (estrone sulfatase; 1 mg/kg/day p.o.): 97%
SMILES: NS(=O)(=O)Oc1ccc2c(c1)S(=O)(=O)C(CC1CCCCCC1)=C2 [Ex 55, Sulfamic acid, 2-cycloheptylmethyl-benzothiophene-6-yl-1,1-dioxide ester]
